Reference: US20090088380A1, “GHRH ANALOGS AND THERAPEUTIC USES THEREOF” (priority 2007, published 2009)
Non-standard residues stand in square brackets, D forms with d. Residues, ends and D or L forms follow the SMILES beside them.

Experiments:
[1] = tested on: malnourished subjects with CKD; assay: Phase II CKD: DEXA scan; format: in vivo, human
Procedure: The DEXA scan was performed by an appropriately qualified person and in accordance with the agreed guidelines. Mean body composition values (fat free mass, fat mass and bone mineral content) were recorded for the total body and for defined regional areas (arms, legs, trunk), if possible.
Mean body composition values (total tissue, fat mass, lean tissue and bone mineral content) were recorded for the total body and defined regional areas (arms, legs, trunk) if possible. FFM was derived for total body and for regional areas.

[2] = molecular target: T1, hGHRH(1-44)-NH2 binding sites in rat anterior pituitary (Rattus norvegicus, UniProt Q02644); assay: Relative binding affinity in rat anterior pituitary preparations, [125I-Tyr10]hGHRH(1-44)-NH2 radioligand; details: values compared to hGHRH(1-29)-NH2
T1 construct: from tissue; host or cells: anterior pituitary of 2-month old male Sprague Dawley rats
T1 sequence (Q02644 23-423 isoform Q02644-2 limits assumed): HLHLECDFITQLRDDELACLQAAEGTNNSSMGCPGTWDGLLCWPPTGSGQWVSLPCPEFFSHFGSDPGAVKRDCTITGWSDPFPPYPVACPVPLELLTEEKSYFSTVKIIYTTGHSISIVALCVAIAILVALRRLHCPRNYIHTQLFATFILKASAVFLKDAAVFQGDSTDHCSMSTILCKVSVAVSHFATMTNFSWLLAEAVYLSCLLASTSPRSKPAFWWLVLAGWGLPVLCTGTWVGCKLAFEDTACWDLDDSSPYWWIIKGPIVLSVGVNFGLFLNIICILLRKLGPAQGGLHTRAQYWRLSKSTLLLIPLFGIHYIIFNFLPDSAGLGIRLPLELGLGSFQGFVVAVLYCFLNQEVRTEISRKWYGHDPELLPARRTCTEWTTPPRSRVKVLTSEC
Description: Initial selection of a candidate from the original 14 polysubstituted GHRH analogs described in the U.S. Pat. No. 5,854,216 was based upon in vitro data on receptor affinity in 2-month old male Sprague Dawley rat anterior pituitary preparations. The embodiments are based on the affinity of selected GHRH analogs for the human GHRH receptor (hGHRH-R) in baby hamster kidney (BHK) cells transfected with hGHRH-R, and on resistance to proteolysis in rat serum, human plasma or human serum. More precisely, the preferred drug candidates were selected, as compared to hGHRH(1-29)-NH2, for: i-their increased relative binding affinity to hGHRH(1-44)-NH2 binding sites in rat anterior pituitary in vitro as well as to hGHRH-R in BHK-expressing cells in vitro; and ii-their relative resistance to proteolysis in vitro.

[3] = tested on: IGF-1, IGFBP-1 and IGFBP-3; assay: Phase II CKD: total IGF-1, IGFBP-1 and IGFBP-3; format: in vivo, human
Procedure: Total IGF-1 (ng/mL), insulin-like growth factor binding protein (IGFBP-1 and IGFBP-3, ng/mL) were measured at every visit from baseline to Day 28 as markers for tissue and cell growth and proliferation. Samples were analysed at the Department of Nephrology, Endocrinology and Metabolic Diseases, Silesian University School of Medicine, Katowice using a Medgenix Diagnostics kit.

[4] = ITT, Baseline, listed as GHRH(1-29)NH2 synthetic analog
[5] = ITT, Day 28, listed as GHRH(1-29)NH2 synthetic analog

CC[C@H](C)[C@H](NC(=O)[C@H](C)NC(=O)[C@H](CC(=O)O)NC(=O)[C@@H](C)NC(=O)[C@@H](N)Cc1ccc(O)cc1)C(=O)N[C@@H](Cc1ccccc1)C(=O)N[C@H](C(=O)N[C@@H](CC(N)=O)C(=O)N[C@@H](CO)C(=O)N[C@H](Cc1ccc(O)cc1)C(=O)N[C@@H](CCCNC(=N)N)C(=O)N[C@@H](CCCCN)C(=O)N[C@H](C(=O)N[C@@H](CC(C)C)C(=O)N[C@H](C)C(=O)N[C@@H](CCC(N)=O)C(=O)N[C@@H](CC(C)C)C(=O)N[C@@H](CO)C(=O)N[C@@H](C)C(=O)N[C@@H](CCCNC(=N)N)C(=O)N[C@@H](CCCCN)C(=O)N[C@@H](CCCCN)C(=O)N[C@@H](CC(C)C)C(=O)N[C@@H](CCC(N)=O)C(=O)N[C@@H](CC(=O)O)C(=O)N[C@H](C(=O)N[C@@H](CCSC)C(=O)N[C@@H](CO)C(=O)N[C@@H](CCCNC(=N)N)C(N)=O)[C@@H](C)CC)C(C)C)[C@@H](C)O [GHRH analog #5, [D-Ala^2, D-Tyr^10, D-Ala^15, Lys^22] hGHRH(1-29)-NH2] (H-Y[dA]DAIFTNS[dY]RKVL[dA]QLSARKKLQDIMSR-NH2)
Mean fat mass (%) as % of the mean in placebo group ([1]; Day 28): 83%
Mean fat mass (kg) as % of the mean in placebo group ([1]; Day 28): 84%
Arms - bone mineral content: mean (SD) ([1]; ITT, Baseline): 0.317 (0.109) kg
Arms - fat mass: mean (SD) ([1]; ITT, Baseline): 2.22 (1.65) kg
Legs - bone mineral content: mean (SD) ([1]; ITT, Baseline): 0.791 (0.273) kg
Legs - fat mass: mean (SD) ([1]; ITT, Baseline): 5.26 (2.86) kg
Total body - bone mineral content (%): mean (SD) ([1]; ITT, Baseline): 3.63 (0.68) %
Total body - bone mineral content (kg): mean (SD) ([1]; ITT, Baseline): 2.236 (0.656) kg
Total body - fat free mass (%): mean (SD) ([1]; ITT, Baseline): 72.11 (14.25) %
Total body - fat free mass (kg): mean (SD) ([1]; ITT, Baseline): 43.83 (10.90) kg
Total body - fat mass (%): mean (SD) ([1]; ITT, Baseline): 27.89 (14.25) %
Total body - fat mass (kg): mean (SD) ([1]; ITT, Baseline): 17.10 (9.48) kg
Trunk - bone mineral content: mean (SD) ([1]; ITT, Baseline): 0.699 (0.239) kg
Trunk - fat mass: mean (SD) ([1]; ITT, Baseline): 8.52 (4.73) kg
Trunk - bone mineral content: mean (SD) [1, 4]: 0.699 kg
Arms - bone mineral content: mean (SD) ([1]; ITT, Day 28): 0.300 (0.106) kg
Arms - fat mass: mean (SD) ([1]; ITT, Day 28): 2.01 (1.25) kg
Legs - bone mineral content: mean (SD) ([1]; ITT, Day 28): 0.784 (0.281) kg
Legs - fat mass: mean (SD) ([1]; ITT, Day 28): 5.31 (3.05) kg
Total body - bone mineral content (%): mean (SD) ([1]; ITT, Day 28): 3.58 (0.69) %
Total body - bone mineral content (kg): mean (SD) ([1]; ITT, Day 28): 2.225 (0.674) kg
Total body - fat free mass (%): mean (SD) ([1]; ITT, Day 28): 73.16 (14.31) %
Total body - fat free mass (kg): mean (SD) ([1]; ITT, Day 28): 44.85 (11.61) kg
Total body - fat mass (%): mean (SD) ([1]; ITT, Day 28): 26.84 (14.31) %
Total body - fat mass (kg): mean (SD) ([1]; ITT, Day 28): 16.51 (9.51) kg
Trunk - bone mineral content: mean (SD) ([1]; ITT, Day 28): 0.718 (0.253) kg
Trunk - fat mass: mean (SD) ([1]; ITT, Day 28): 8.17 (4.91) kg
Trunk - bone mineral content: mean (SD) [1, 5]: 0.718 kg
Total body - fat free mass (kg): ratio of means; higher than placebo ([1]; ITT, Day 28, vs placebo): 2.94 kg
Total body - fat mass (%): ratio of means ([1]; ITT, Day 28, vs placebo): 0.83
Total body - fat mass (kg): ratio of means ([1]; ITT, Day 28, vs placebo): 0.84
Total body - fat free mass (kg): ratio of means; higher than placebo ([1]; ITT, Day 28, vs placebo, listed as GHRH(1-29)NH2 synthetic analog): 2.9 kg
Decrease from baseline in median FM ([1]; day 28): 0.4 kg
FM lost on average in arms ([1]; day 28): 0.22 kg
FM lost on average in trunk ([1]; day 28): 0.30 kg
Increase from baseline in median FFM ([1]; day 28): 1.6 kg
Mean FFM gained, arms ([1]; day 28): 0.15 kg
Mean FFM gained, legs ([1]; day 28): 1.03 kg
Mean FFM gained, total body ([1]; day 28): 1.83 kg
Mean FFM gained, trunk ([1]; day 28): 0.59 kg
Mean total FM lost ([1]; day 28): 0.51 kg
Relative binding affinity in rat anterior pituitary [2]: 1.04 ± 0.40
Mean decrease in IGFBP-1 concentration ([3]; 4-week treatment): 26.7%
IGFBP-3: adjusted difference between treatments ([3]; ITT): 580.85 ng/mL
IGFBP-1: mean (SD) ([3]; ITT, Baseline): 74.98 (39.13) ng/mL
IGFBP-3: median ([3]; ITT, Baseline): 4039.6 (813.7) ng/mL
Total IGF-1: median (95% CI) ([3]; ITT, Baseline): 335.8 (—) ng/mL
Total IGF-1: median (95% CI) [3, 4]: 335.8 ng/mL
Total IGF-1: median (95% CI) ([3]; ITT, Day 7): 576.0 (494.10; 828.70) ng/mL
Total IGF-1: median (95% CI) ([3]; ITT, Day 14): 611.8 (490.40; 913.60) ng/mL
Total IGF-1: median (95% CI) ([3]; ITT, Day 21): 729.8 (497.10; 913.50) ng/mL
IGFBP-1: mean (SD) ([3]; ITT, Day 28): 54.94 (30.72) ng/mL
IGFBP-3: median ([3]; ITT, Day 28): 5130.8 (961.0) ng/mL
Total IGF-1: median (95% CI) ([3]; ITT, Day 28): 684.2 (564.10; 881.80) ng/mL
Total IGF-1: median (95% CI) [3, 5]: 684.2 ng/mL
IGFBP-1: adjusted difference between GHRH and placebo ([3]; ITT, listed as GHRH(1-29)NH2 synthetic analog): 28.40 ng/mL
Median total IGF-1: increase ([3]; baseline to day 28): 104%
